One data set has as its system Puccinia recondita. Kind of data set: In vivo preventive test on Puccinia recondita (brown rust on wheat). To be noted: Table A2, dose 100 ppm, evaluated 11 days after inoculation. How it is done: (§1) Example A: In Vivo Preventive Test on Puccinia Recondita (Brown Rust on Wheat) Solvent: 5% by volume of Dimethyl sulfoxide • 10% by volume of Acetone Emulsifier: 1 μL of Tween® 80 per mg of active ingredient The active ingredients are made soluble and homogenized in a mixture of Dimethyl sulfoxide/Acetone/Tween® 80 and then diluted in water to the desired concentration. The young plants of wheat are treated by spraying the active ingredient prepared as described above. Control plants are treated only with an aqueous solution of Acetone/Dimethyl sulfoxide/Tween® 80. After 24 hours, the plants are contaminated by spraying the leaves with an aqueous suspension of Puccinia recondita spores. The contaminated wheat plants are incubated for 24 hours at 20° C. and at 100% relative humidity and then for 10 days at 20° C. and at 70-80% relative humidity. The test is evaluated 11 days after the inoculation. 0% means an efficacy which corresponds to that of the control plants while an efficacy of 100% means that no disease is observed.

In the next data set the test system is Uromyces appendiculatus. As to the kind of experiment: In vivo preventive test on Uromyces appendiculatus (bean rust). To be noted: Table B2, dose 100 ppm, evaluated 11 days after inoculation. The protocol: as §1, with “B:” for “A:”, “Uromyces Appendiculatus (Bean Rust)” for “Puccinia Recondita (Brown Rust on Wheat)”, “bean” for “wheat”, “Uromyces appendiculatus” for “Puccinia recondita”

Data set [1] in a line: logP by HPLC on reversed-phase column (C 18), EEC Directive 79/831 Annex V.A8. In kind it is physicochemical. The note with it: reversed-phase HPLC column (C 18), 40° C., 0.1% aqueous formic acid and acetonitrile, gradient 10% to 90% acetonitrile. The protocol:
In table 1, the logP values were determined in accordance with EEC Directive 79/831 Annex V.A8 by HPLC (High Performance Liquid Chromatography) on a reversed-phase column (C 18), using the method described below: Temperature: 40° C.; Mobile phases: 0.1% aqueous formic acid and acetonitrile; linear gradient from 10% acetonitrile to 90% acetonitrile. Calibration was carried out using unbranched alkan-2-ones (comprising 3 to 16 carbon atoms) with known logP values (determination of the logP values by the retention times using linear interpolation between two successive alkanones). lambda-max-values were determined using UV-spectra from 200 nm to 400 nm and the peak values of the chromatographic signals.

For the compound `CC(C)c1ncc(Cl)cc1CN(C(=O)c1cn(C)nc1C(F)F)C1CC1` [CMP1, N-[(5-chloro-2-isopropylpyridin-3-yl)methyl]-N-cyclopropyl-3-(difluoromethyl)-1-methyl-1H-pyrazole-4-carboxamide], the Efficacy in the data set on Puccinia recondita and in the data set on Uromyces appendiculatus was 0% throughout.

With `Cc1cc(C2(Cl)CC2)c(CN(C(=O)c2cn(C)nc2C(F)F)C2CC2)s1` [Example I.05, N-{[3-(1-chlorocyclopropyl)-5-methyl-2-thienyl]methyl}-N-cyclopropyl-3-(difluoromethyl)-1-methyl-1H-pyrazole-4-carboxamide], the chromatographic logP (as a rule, lipophilicity estimated from chromatographic retention) in data set [1] is 3.39.
